By IC50 is commonly meant the concentration that inhibits the measured activity by half.

This passage reports IC50 results from patent publication US10882829B2, “Pharmaceutical compounds” (Sareum Limited, priority 2012, dated 2021).

Assay type in all cases: biochemical
Experiment [1] deals with TYK2 kinase (Homo sapiens (Human), UniProt P29597). Put plainly: TYK2 kinase inhibition assay (33P-ATP, Reaction Biology Corp.). To be noted: substrate AXLtide, 120 min at room temperature, read-out: In Vitro Enzyme IC50 (nM) TYK2. How it is done: (§1) Compounds of the invention were assayed for their ability to inhibit TYK2 kinase and other JAK kinases.
Chain of TYK2 kinase (P29597 833-1187): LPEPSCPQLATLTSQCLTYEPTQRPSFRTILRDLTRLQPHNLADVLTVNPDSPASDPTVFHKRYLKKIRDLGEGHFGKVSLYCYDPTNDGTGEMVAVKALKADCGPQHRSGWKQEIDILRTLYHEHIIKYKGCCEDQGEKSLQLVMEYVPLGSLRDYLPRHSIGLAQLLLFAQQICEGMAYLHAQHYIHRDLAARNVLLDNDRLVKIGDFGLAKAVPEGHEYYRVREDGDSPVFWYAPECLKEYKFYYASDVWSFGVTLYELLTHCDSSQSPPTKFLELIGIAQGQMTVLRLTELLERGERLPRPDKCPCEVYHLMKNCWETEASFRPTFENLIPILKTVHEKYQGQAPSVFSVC
(§2) Substrates and kinases used in the assays are identified in Table 2 below.

Experiment [2] addresses JAK1 (Homo sapiens (Human), UniProt P23458). Put plainly: JAK1 kinase inhibition assay (33P-ATP, Reaction Biology Corp.). To be noted: substrate pEY, 120 min at room temperature, read-out: In Vitro Enzyme IC50 (nM) JAK1. How it is done: as §1, §2
Experiment [3] concerns the target JAK2 (Homo sapiens (Human), UniProt O60674). Briefly: JAK2 kinase inhibition assay (33P-ATP, Reaction Biology Corp.). To be noted: substrate pEY, 120 min at room temperature, read-out: In Vitro Enzyme IC50 (nM) JAK2. As for the experimental part: as §1, §2
Experiment [4] deals with JAK3 (Homo sapiens (Human), UniProt P52333). Briefly: JAK3 kinase inhibition assay (33P-ATP, Reaction Biology Corp.). The conditions noted are these: substrate JAK3tide, 120 min at room temperature, read-out: In Vitro Enzyme IC50 (nM) JAK3. As for the experimental part: as §1, §2
Chain of JAK3 (P52333 781-1124): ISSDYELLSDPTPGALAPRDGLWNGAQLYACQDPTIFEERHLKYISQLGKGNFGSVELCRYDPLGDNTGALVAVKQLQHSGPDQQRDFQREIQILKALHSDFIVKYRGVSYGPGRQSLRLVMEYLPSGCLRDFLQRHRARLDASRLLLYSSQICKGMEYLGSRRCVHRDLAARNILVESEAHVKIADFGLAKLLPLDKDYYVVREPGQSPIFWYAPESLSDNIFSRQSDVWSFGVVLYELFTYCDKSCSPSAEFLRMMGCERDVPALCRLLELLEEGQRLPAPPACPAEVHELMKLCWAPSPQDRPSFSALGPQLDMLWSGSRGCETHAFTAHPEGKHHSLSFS

Chain of JAK2 (O60674 809-1132): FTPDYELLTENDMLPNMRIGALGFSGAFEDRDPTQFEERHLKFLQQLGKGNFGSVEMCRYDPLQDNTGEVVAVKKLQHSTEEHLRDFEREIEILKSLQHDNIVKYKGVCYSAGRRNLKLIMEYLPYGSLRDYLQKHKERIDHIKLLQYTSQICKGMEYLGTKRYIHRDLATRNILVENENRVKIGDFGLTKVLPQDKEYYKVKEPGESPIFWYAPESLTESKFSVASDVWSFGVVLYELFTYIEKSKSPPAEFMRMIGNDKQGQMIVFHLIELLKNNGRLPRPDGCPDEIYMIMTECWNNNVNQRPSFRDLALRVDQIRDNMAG
Chain of JAK1 (P23458 866-1154): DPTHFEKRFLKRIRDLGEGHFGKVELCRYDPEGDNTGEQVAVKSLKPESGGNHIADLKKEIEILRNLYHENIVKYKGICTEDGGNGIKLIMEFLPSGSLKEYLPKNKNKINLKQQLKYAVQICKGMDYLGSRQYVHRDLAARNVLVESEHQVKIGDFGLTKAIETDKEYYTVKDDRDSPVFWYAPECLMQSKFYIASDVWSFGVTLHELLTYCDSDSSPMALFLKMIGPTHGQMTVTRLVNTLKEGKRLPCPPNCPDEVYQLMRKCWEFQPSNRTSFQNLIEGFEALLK

On to `CS(=O)(=O)c1ccc(Nc2oc(-c3c(F)cccc3F)nc2C(N)=O)cc1` [Example 1, 2-(2,6-difluorophenyl)-5-(4-(methylsulfonyl)phenylamino)oxazole-4-carboxamide], for which the 50% inhibitory concentration (IC50) in experiment [1] came to 13.5 nM; in experiment [2], 90.2 nM; in experiment [3] it was 235 nM; in experiment [4], 405 nM.
Taken in the same sequence, the figures for `NC(=O)c1nc(-c2c(F)cccc2F)oc1Nc1ccc(S(N)(=O)=O)cc1` [Example 2, 2-(2,6-difluorophenyl)-5-(4-sulfamoylphenylamino)oxazole-4-carboxamide] were 14.6 nM, 78.2 nM, 147 nM and 419 nM.
With `CN(C)S(=O)(=O)c1ccc(Nc2oc(-c3c(F)cccc3F)nc2C(N)=O)cc1` [Example 3, 2-(2,6-difluorophenyl)-5-(4-(N,N-dimethylsulfamoyl)phenylamino)oxazole-4-carboxamide], the half-inhibitory concentration (IC50) in experiment [1] turned out to be 5.3 nM; in experiment [2], 47.6 nM; in experiment [3], 95 nM; in experiment [4], 359 nM.
The like results for `CNS(=O)(=O)c1ccc(Nc2oc(-c3c(F)cccc3F)nc2C(N)=O)cc1` [Example 4, 2-(2,6-difluorophenyl)-5-(4-(N′-methylsulfamoyl)phenylamino)oxazole-4-carboxamide] were, in that order, 13.8 nM, 65.6 nM, 109 nM and 387 nM.
Regarding `CN(C)C(=O)c1ccc(Nc2oc(-c3c(F)cccc3F)nc2C(N)=O)cc1` [Example 5, 2-(2,6-difluorophenyl)-5-(4-(dimethylcarbamoyl)phenylamino)oxazole-4-carboxamide], the IC50 in experiment [1] was 9.2 nM; in experiment [2] it was 88.6 nM; in experiment [3], 112 nM; in experiment [4] it was 219 nM.
As for `NCCCNC(=O)c1ccc(Nc2oc(-c3c(F)cccc3F)nc2C(N)=O)cc1` [Example 6, 5-(4-((3-aminopropyl)carbamoyl)phenylamino)-2-(2,6-difluorophenyl)oxazole-4-carboxamide], the half-inhibitory concentration (IC50) in experiment [1] is 25 nM; in experiment [2] it was 192 nM; in experiment [3], 297 nM; in experiment [4], 472 nM.
The like results for `NC(=O)c1nc(-c2c(F)cccc2F)oc1Nc1ccc(C(=O)N[C@@H]2CCCNC2)cc1` [Example 7, (R)-2-(2,6-difluorophenyl)-5-(4-(piperidin-3-ylcarbamoyl)phenylamino)oxazole-4-carboxamide] were, in that order, 9.8 nM, 202 nM, 261 nM and 419 nM.
In the case of `NC(=O)c1nc(-c2c(F)cccc2F)oc1Nc1ccc(C(=O)N[C@H]2CCCNC2)cc1` [Example 8, (S)-2-(2,6-difluorophenyl)-5-(4-(piperidin-3-ylcarbamoyl)phenylamino)oxazole-4-carboxamide], the half-inhibitory concentration (IC50) in experiment [1] was found to be 12.9 nM; in experiment [2], 201 nM; in experiment [3], 268 nM; in experiment [4], 408 nM.
The like results for `NC(=O)c1nc(-c2c(F)cccc2F)oc1Nc1ccc(C(=O)N2CCOCC2)cc1` [Example 9, 2-(2,6-difluorophenyl)-5-(4-(morpholine-4-carbonyl)phenylamino)oxazole-4-carboxamide] were, in that order, 22.7 nM, 75.6 nM, 267 nM and 423 nM.
As for `CNCCNC(=O)c1ccc(Nc2oc(-c3c(F)cccc3F)nc2C(N)=O)cc1` [Example 10, 5-(4-((2-(methylamino)ethyl)carbamoyl)phenylamino)-2-(2,6-difluorophenyl) oxazole-4-carboxamide], the concentration for half-maximal inhibition (IC50) was 20.5 nM in experiment [1], 183 nM in experiment [2], 311 nM in experiment [3] and 397 nM in experiment [4].
Taken in the same sequence, the figures for `CNCCCNC(=O)c1ccc(Nc2oc(-c3c(F)cccc3F)nc2C(N)=O)cc1` [Example 11, 5-(4-((3-(methylamino)propyl)carbamoyl)phenylamino)-2-(2,6-difluorophenyl) oxazole-4-carboxamide] were 15.1 nM, 190 nM, 338 nM and 388 nM.
In the case of `NC(=O)c1nc(-c2c(F)cccc2F)oc1Nc1ccc(C(=O)N[C@@H]2CCNC2)cc1` [Example 12, (R)-2-(2,6-difluorophenyl)-5-(4-(pyrrolidin-3-ylcarbamoyl)phenylamino)oxazole-4-carboxamide], the IC50 in experiment [1] came out at 23.4 nM; in experiment [2], 169 nM; in experiment [3] it was 292 nM; in experiment [4], 346 nM.
Regarding `NC(=O)c1nc(-c2c(F)cccc2F)oc1Nc1ccc(C(=O)N[C@H]2CCNC2)cc1` [Example 13, (S)-2-(2,6-difluorophenyl)-5-(4-(pyrrolidin-3-ylcarbamoyl)phenylamino)oxazole-4-carboxamide], the half-inhibitory concentration (IC50) in experiment [1] was 11.2 nM; in experiment [2], 123 nM; in experiment [3], 182 nM; in experiment [4] it was 342 nM.
The like results for `NC(=O)c1nc(-c2c(F)cccc2F)oc1Nc1ccc(C(=O)N2CCC[C@@H]2CO)cc1` [Example 14, (R)-2-(2,6-difluorophenyl)-5-(4-(2-(hydroxymethyl)pyrrolidine-1-carbonyl)phenylamino)oxazole-4-carboxamide] were, in that order, 9.6 nM, 67.2 nM, 36 nM and 126 nM.
As for `NC(=O)c1nc(-c2c(F)cccc2F)oc1Nc1ccc(C(=O)NCCO)cc1` [Example 15, 5-(4-((2-hydroxyethyl)carbamoyl)phenylamino)-2-(2,6-difluorophenyl)oxazole-4-carboxamide], the concentration for half-maximal inhibition (IC50) in experiment [1] was determined as 7.5 nM; in experiment [2], 41.1 nM; in experiment [3], 101 nM; in experiment [4], 195 nM.
For the compound `NC(=O)c1nc(-c2c(F)cccc2F)oc1Nc1ccc(C(=O)NCCCO)cc1` [Example 16, 5-(4-((3-hydroxypropyl)carbamoyl)phenylamino)-2-(2,6-difluorophenyl)oxazole-4-carboxamide], the 50% inhibitory concentration (IC50) was determined as 8.4 nM in experiment [1], 58.1 nM in experiment [2], 119 nM in experiment [3] and 199 nM in experiment [4].
The like results for `NC(=O)c1nc(-c2c(F)cccc2F)oc1Nc1ccc(C(=O)NC2CCNCC2)cc1` [Example 17, 2-(2,6-difluorophenyl)-5-(4-(piperidin-4-ylcarbamoyl)phenylamino)oxazole-4-carboxamide] were, in that order, 13.7 nM, 153 nM, 167 nM and 99.2 nM.
For `CN1CCC(NC(=O)c2ccc(Nc3oc(-c4c(F)cccc4F)nc3C(N)=O)cc2)CC1` [Example 18, 5-(4-((1-methylpiperidin-4-yl)carbamoyl)phenylamino)-2-(2,6-difluorophenyl) oxazole-4-carboxamide], the concentration for half-maximal inhibition (IC50) in experiment [1] amounted to 13.8 nM; in experiment [2] it was 118 nM; in experiment [3], 192 nM; in experiment [4], 165 nM.
The like results for `CS(=O)(=O)c1ccc(Nc2oc(-c3c(Cl)cccc3Cl)nc2C(N)=O)cc1` [Example 19, 2-(2,6-Dichloro-phenyl)-5-(4-methanesulfonyl-phenylamino)-oxazole-4-carboxylic acid amide] were, in that order, 2.3 nM, 21.9 nM, 87.7 nM and 214 nM.
Turning to `CS(=O)(=O)c1ccc(Nc2oc(-c3c(F)cccc3Cl)nc2C(N)=O)cc1` [Example 20, 2-(2-Chloro-6-fluoro-phenyl)-5-(4-methanesulfonyl-phenylamino)-oxazole-4-carboxylic acid amide], the IC50 in experiment [1] stood at 2.7 nM; in experiment [2], 28.7 nM; in experiment [3], 72.6 nM; in experiment [4] it was 165 nM.
For `CS(=O)(=O)c1ccc(Nc2oc(-c3c(F)cc(F)cc3F)nc2C(N)=O)cc1` [Example 21, 5-(4-Methanesulfonyl-phenylamino)-2-(2,4,6-trifluoro-phenyl)-oxazole-4-carboxylic acid amide], the IC50 in experiment [1] amounted to 68.3 nM; in experiment [2], 241 nM; in experiment [3] it was 412 nM; in experiment [4], 2180 nM.
The like results for `CS(=O)(=O)c1ccc(Nc2oc(-c3cc(F)ccc3F)nc2C(N)=O)cc1` [Example 22, 2-(2,5-Difluoro-phenyl)-5-(4-methanesulfonyl-phenylamino)-oxazole-4-carboxylic acid amide] were, in that order, 183 nM, 843 nM, 663 nM and 5500 nM.
